“Also recorded” adds a separate entry of the source. Numbered stars: 1 amine (or outer) side, 2 acyl side, 3 side chain; on linkers, the order of the positions; unused ones are H or OH. Square brackets hold non-standard residues; d marks the D form. Peptide text beside a SMILES is read from it. * marks the point of attachment. X1 = CC(N[*:1])C(=O)C(F)(F)C(=O)[*:2]; Boc = CC(C)(C)OC(=O)*

Test [1] concerns the target T1, SPPL2b (Homo sapiens, UniProt Q8TCT7).
T1 construct: expressed in transfected cells; host or cells: HEK 293T
T1 sequence (Q8TCT7 26-592): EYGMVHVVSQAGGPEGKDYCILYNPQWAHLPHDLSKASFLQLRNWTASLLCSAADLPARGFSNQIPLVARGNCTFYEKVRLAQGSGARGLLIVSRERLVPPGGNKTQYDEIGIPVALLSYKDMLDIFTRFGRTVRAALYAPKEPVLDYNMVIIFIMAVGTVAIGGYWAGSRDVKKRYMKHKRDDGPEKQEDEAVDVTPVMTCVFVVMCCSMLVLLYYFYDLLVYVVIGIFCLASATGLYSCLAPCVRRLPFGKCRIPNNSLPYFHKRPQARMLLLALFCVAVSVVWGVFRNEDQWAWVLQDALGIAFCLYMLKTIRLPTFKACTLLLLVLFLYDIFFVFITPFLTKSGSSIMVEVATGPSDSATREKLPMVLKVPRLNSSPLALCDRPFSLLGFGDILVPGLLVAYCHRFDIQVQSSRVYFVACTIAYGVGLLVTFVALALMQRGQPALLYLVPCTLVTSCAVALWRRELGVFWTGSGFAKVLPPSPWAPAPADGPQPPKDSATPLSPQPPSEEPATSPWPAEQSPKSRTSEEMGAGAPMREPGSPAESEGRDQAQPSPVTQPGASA
The test is described as follows: FBA/SPPL2b co-transfected HEK 293T cell cleavage assay (Aβ ELISA, Western blot, IP/MS). Type of test: cell-based. To be noted: for inhibition of xAβ1-25/K16A secretion (in words) / inhibition at 25 µM: 25 μM, ELISA; for inhibition of FBA cleavage (10 kD ICD) by Western blot: Fig 3C upper panel; for IC50: HEK cells, 24 h, xAβ1-25/K16A by Aβ ELISA, mean ± standard error, read-out: IC50 on FBA/SPPL co-transfected cells; for inhibition at 25 µM: DMSO = 100%, read-out: inhibition of the SPP/SPPLs; for rank order of inhibition: number in parenthesis in Table 3. From the text: (§1) Expression constructs in pcDNA6 for COOH-terminal FLAG (DYKDDDDK) and strep (WSHPQFEK) tagged SPPL2a, SPPL2b, hSPP and pSPP were generated as previously described. Untagged versions of all enzymes were also made and ligated into the pAG3 vector. Substrates (Fig 1) were designed as follows: FLAG-BRI2_1-81- Aβ1-25/K16A (FBA). The K16A mutation was incorporated to prevent potential α-secretase cleavage that would preclude ELISA based detection of the released COOH-terminal fragment. The substrate DNA was cloned into the expression vector pcDNA6. Constructs were confirmed by DNA sequencing. The overexpression of substrates was performed by transiently transfecting human embryonic kidney (HEK 293T) cells with or without SPP/SPPL vectors. Cells were grown in DMEM media supplemented with Hyclone 10% fetal bovine serum (GE, Logan, Utah, USA) and 1% penicillin/streptomycin (Life Technologies, Grand Island, NY, USA). Briefly, 2.7 μg DNA was applied to a 75% confluent 6 well plate (Corning, Tewksbury, MA, USA) using the polycation polyethylenimine (PEI) transfection method. Inhibitor testing experiments were conducted in 48 well plates with appropriately adjusted amounts of DNA and PEI and incubated 12–16 hours, after which the growth medium was replaced with fresh medium. DMSO (Sigma, St. Louis, MO, USA) and GSIs were added at the appropriate concentration. The GSIs, L685,458 and Compound W were purchased from Tocris (Tocris, Bristol, UK). (Z-LL)2 ketone, Compound E, DAPT, GSI II were purchased from Calbiochem (Merck Millipore, Billerica, MA, USA). LY-411,575 was synthesized by A. Fauq at the Mayo Clinic Chemical Core. Twenty-four hours later, the medium was collected for assay by ELISA and MS. A20 cells (TIB-208) (ATCC, Manassas, VA, USA) were cultured in RPMI-1640 medium (ATCC) supplied with 10% fetal bovine serum, 1% penicillin/streptomycin and 0.05 mM 2-mercaptoethanol (Life Technologies). At the density of 5x10^5 cells/ml, A20 cells were spun down at 1000 g for 2 min and resuspended in fresh medium supplied with DMSO or GSIs and incubated for 16 hr.
(§2) Sandwich ELISAs used for Aβ detection were performed as previously described. Briefly, Aβ and Aβ adducts with substrate TMD in conditioned media was captured with Ab5 antibody (human Aβ1–16 specific) and detected with horseradish peroxidase mAb 4G8 (Covance, Princeton, NJ, USA). Synthetic Aβ1–40 was used as standard. All ELISAs were developed with TMB substrate (KPL, Gaithersburg, Maryland, USA). Bis-Tris precast gels (Biorad, Hercules, CA, USA) were used for all SDS-PAGE. Monoclonal anti-FLAG M2 antibody (Sigma) and Aβ1–16 antibody 6E10 (Covance) were used for Western blotting. Antisera against SPPL2a, SPPL2b, hSPP and pSPP were generated as previously described and were used at dilution of 1:1000 for Western blotting. Anti-CD74 In-1 antibody (BD Bioscience, San Jose, CA, USA) was used for A20 cell lysate Western blotting at dilution of 1:1000.
Immunoprecipitation and mass spectrometry of xAβ1–25 in conditioned media were performed as previously described. In this study, 10 ml conditioned media were used for each experiment. ICDs were immunoprecipitated with anti-FLAG M2 magnetic beads. Cells from 10 cm dished treated with DMSO or 20 μM LY-411,575 were used for each test.
(An ELISA detects its analyte on a solid surface through an enzyme-linked reagent.)

Test [2] has as its system T2, SPPL2a.
T2 construct: endogenous SPPL2a cleavage of CD74 in a murine B-Cell line; host or cells: A20 mouse B lymphocyte cells
Kind of test: Endogenous CD74 NTF P8 turnover in non-overexpressing A20 cells (Western blot, In-1 antibody). In kind it is cell-based, mouse. To be noted: for stabilization of the CD74 8 kDa NTF P8: 25 μM, 16 hr; for dose response of P8 fragment stabilization (in words): different doses; for lowest concentration inhibiting P8 turnover: dose response. The protocol:
as §1, with “Untagged” for “Expression constructs in pcDNA6 for COOH-terminal FLAG (DYKDDDDK) and strep (WSHPQFEK) tagged SPPL2a, SPPL2b, hSPP and pSPP were generated as previously described. Untagged”
as §2

Turning to `CC(C)C[C@H](NC(=O)OCc1ccccc1)C(=O)N[C@@H](CC(C)C)C(=O)NCC(=O)CNC(=O)[C@H](CC(C)C)NC(=O)[C@H](CC(C)C)NC(=O)OCc1ccccc1` [(Z-LL)2 ketone], in test [1] (10 μM, Aβ ELISA, Fig 1D), the “FBA cleavage by co-transfected SPPL (in words)” value is given as “largely inhibited”. For the same compound, in test [1] (10 μM, Western blot anti-FLAG M2), the “generation of the SPP/SPPL dependent 10 kDa ICD” value is “significantly reduced”. For the same compound, in test [1], the “inhibition of xAβ1-25/K16A secretion (in words)” value (shortened to “inhibition … (in words)”) is listed as “largely inhibited”, the “inhibition of FBA cleavage (10 kD ICD) by Western blot” value (shortened to “inhibition of FBA cleavage”) is on record as “greatly inhibit”, the IC50 amounted to 2.14 ± 0.143 µM and the “rank order of inhibition” value came to 2. In test [1] (HEK-293T, 10 μM, overnight, Aβ ELISA), this compound returned an inhibition at 10 µM of over 75%. In addition, in test [1] (HEK-293T), the inhibition at 25 µM is over 90%. Besides, in test [2], the “stabilization of the CD74 8 kDa NTF P8” value was “greatly stabilized”, the “dose response of P8 fragment stabilization (in words)” value (from here on “dose response”) is given as “stabilized the P8 fragment in a dose dependent manner” and the “lowest concentration inhibiting P8 turnover” value is on record as 40 nM.

On to `C[C@H](NC(=O)Cc1cc(F)cc(F)c1)C(=O)N[C@H]1N=C(c2ccccc2)c2ccccc2N(C)C1=O` [Compound E], for which, in test [1], the “inhibition … (in words)” value is “did not show inhibition” and the “inhibition of FBA cleavage” value is “negligible effect”. Further, the “stabilization of the CD74 8 kDa NTF P8” value in test [2] is on record as “did not show significant effects”.

As for `C[C@H](NC(=O)Cc1cc(F)cc(F)c1)C(=O)NC(C(=O)OC(C)(C)C)c1ccccc1` (stereo partly drawn) [DAPT], in test [1], the “inhibition … (in words)” value is on record as “does not inhibit” and the “inhibition of FBA cleavage” value was “slightly reduce”. Also, the “stabilization of the CD74 8 kDa NTF P8” value in test [2] is on record as “no inhibition”.

For the compound `CC[C@H](C)[C@H](NC(=O)[C@@H](NC(=O)OC(C)(C)C)C(C)C)C(=O)NC(C)C(=O)C(F)(F)C(=O)N[C@H](C(=O)N[C@H](C(=O)OC)[C@@H](C)CC)C(C)C` (stereo partly drawn) [GSI II] (Boc-VI[X1]VI-OMe), in test [1], the “inhibition … (in words)” value is listed as “efficiently inhibited; also recorded: largely inhibited”, the “inhibition of FBA cleavage” value is “greatly inhibit”, the IC50 amounted to 3.6 ± 0.121 µM and the “rank order of inhibition” value came to 3. In test [2], the “stabilization of the CD74 8 kDa NTF P8” value is on record as “greatly stabilized”, the “dose response” value is recorded as “stabilized the P8 fragment in a dose dependent manner” and the “lowest concentration inhibiting P8 turnover” value was 40 nM.

As to `C[C@H](NC(=O)[C@@H](O)c1cc(F)cc(F)c1)C(=O)N[C@@H]1C(=O)N(C)c2ccccc2-c2ccccc21` [LY-411,575], the “cleavage products in conditioned media by IP/MS” value in test [1] (20 μM) was “No major cleavage product was detected”. Further, in test [1], the “inhibition … (in words)” value is “largely inhibited”, the “inhibition of FBA cleavage” value is listed as “greatly inhibit”, the IC50 was found to be 5.5 ± 0.122 µM and the “rank order of inhibition” value turned out to be 4. Further, the inhibition at 25 µM in test [1] (HEK-293T) was over 90%. For the same compound, in test [2], the “stabilization of the CD74 8 kDa NTF P8” value was “greatly stabilized”, the “dose response” value is reported as “stabilized the P8 fragment in a dose dependent manner” and the “lowest concentration inhibiting P8 turnover” value was 40 nM.

For the origin of these results see article PMC4457840, “Differential Inhibition of Signal Peptide Peptidase Family Members by Established γ-Secretase Inhibitors” (PLoS ONE, 2015).
